The results in this text go back to the RepoRT retention time repository.

The data set in a line: Agilent ZORBAX 300 SB-C18, 150 × 1 mm, 3.5 µm; A: water + 0.01% heptafluorobutyric acid; B: acetonitrile + 0.01% heptafluorobutyric acid; gradient (min/%B) 0/0 100/90. The following applies: stereoisomer not certain.
On to `O=C(CCC1CCCC1)N1CCN(C(=O)COc2ccccc2)CC1`, for which the LC retention time was 13.7 min.
With `Cc1ccc2[nH]c(-c3cc[n+](C)cc3)cc2c1`, the LC retention time worked out at 9.82 min.
Next, `O=C(O)c1cc(N2CCCC2=O)cc(N2CCCC2=O)c1`: 8.34 min; `CCOC(=O)C1(c2ccccc2)CCN(C)CC1`: 9.81 min.
Next, `C#CC(C)(C)NC(=O)NC(C)(C)C#C`: 9.95 min; `O=C(CCc1ccccc1)NN=Cc1ccccc1O`: 13.3 min.
Next, `CCCCCC[N+](C)(C)C`: 8.47 min; `COc1ccccc1OCC(=O)N1CCNC1=O`: 8.89 min; `CN(C)c1nc(N(C)C)nc(N2CCCCC2)n1`: 11.2 min.
`O=C(O)CCC(=O)Nc1ccc2c(c1)CCCC2`: the LC retention time turned out to be 11.2 min.
Next, `O=C(O)CN=C1NC2(CCCCC2)Cc2ccccc21`: 9.36 min; `CC(=O)C1(O)CCC2C3C=CC4=CC(=O)CCC4(C)C3CCC21C` (stereo not given): 13.8 min.
To `Cc1c(-c2nc3ccccc3[nH]2)cnn1C` belongs 8.16 min.
For the compound `CCCCOC(=O)C1C(C)=NC(=O)NC1c1ccc(CC)cc1` (stereo not given), the LC retention time turned out to be 14.3 min.
Turning to `CC(C)CNc1c(N)c(=O)oc2ccccc12`, the LC retention time is 11.9 min.
Regarding `c1ccc2nccnc2c1`, the LC retention time came to 8.94 min.
As to `Cc1cc(C(=O)N2CCCCC2)c2c(=O)n(CC(=O)N3CCc4ccccc43)c(=O)n(C)c2n1`, the LC retention time came to 13.5 min.
To `Nc1ncnc(N)n1` belongs 7.16 min.
Next, `O=c1c2ccccc2nnn1Cc1ccncc1`: 8.31 min; `Cc1cccc(N)c1N`: 7.32 min; `Cc1ccc(CSc2ncccn2)c(CSc2ncccn2)c1C`: 16 min.
To `O=C(O)Cc1c(C(=O)O)[nH]c2ccc(C(=O)O)cc12` belongs 7.21 min; to `c1ccc(CCn2cccc2)cc1`, 15.5 min.
Consider `NC1CCCC1`, for which the LC retention time amounted to 6.51 min.
To `COc1cccc2ccc(C)nc12` belongs 7.77 min; to `Cc1nc2ccc(NC(=S)N(C)C)cc2nc1C`, 8.82 min.
Next, `NCC1CCNCC1`: 6.49 min.
Next, `NCC(=O)Nc1ccccc1`: 7.45 min; `C#CC(C)(CC)NC(=O)Cc1ccccc1` (stereo not given): 12.2 min; `c1cc(C2=NC(c3ccncc3)C(c3ccncc3)N2)ccn1` (stereo not given): 7.12 min.
With `NC(=S)CCc1ccccn1`, the LC retention time worked out at 6.55 min.
To `c1cncc(N2CCN(c3cccnc3)CC2)c1` belongs 7.33 min.
With `O=C(NCc1n[nH]c(=O)c2ccccc12)C(=Cc1ccco1)NC(=O)c1ccco1`, the LC retention time was 9.12 min.
Next, `O=c1cc[nH]c(=O)[nH]1`: 1.47 min; `CN(C)C(=O)c1ccccc1`: 8.98 min; `NC1c2ccccc2CC1O` (stereo not given): 7.28 min.
Next, `Cc1c(C(=O)O)[nH]c(=O)[nH]c1=O`: 1.56 min.
Next, `CN1CCCN=C1C=Cc1cccs1`: 8.55 min; `c1coc(C2NCCc3ccccc32)c1` (stereo not given): 8.65 min.
With `Nc1ccc(N)cc1`, the LC retention time came to 4.51 min.
With `COC1N(c2ccccc2)N=C(c2ccccc2)N1c1ccccc1` (stereo not given), the LC retention time is 16.8 min.
Consider `CC(=O)Nc1cc(=O)[nH]c(C)n1`, for which the LC retention time turned out to be 5.68 min.
To `Cc1cc(C)nc(Nc2n[nH]c(C)n2)n1` belongs 8.05 min; to `Cc1ccc(-c2cc(C)c(C)cc2C)nc1`, 10.6 min; to `CCOC(=O)C1=C(C(=O)OC)CN(c2ccccc2)N1`, 13.7 min.
To `COC(=O)c1c[nH]c2ccccc12` belongs 10.9 min; to `Cn1c(=O)n(-c2cccc(N)c2)c(=O)n1C`, 7.06 min.
To `Cc1ccc(C=Cc2nnc(-c3ccccc3C)o2)cc1` belongs 18.1 min; to `CCCCCCCNC(=O)c1ccc(OC(C)=O)cc1`, 14.9 min.
On to `c1nc[nH]n1`, for which the LC retention time stood at 1.93 min.
Next, `CN(C)c1nc(N)nc(N(C)C)n1`: 8.03 min; `Cc1[nH]c2ccccc2c1CCNC(N)=O`: 9.08 min.
To `CNC(=O)c1cc2c(n(-c3ccccc3)c1=O)CCCC2=O` belongs 9.8 min; to `COC(=O)CC1CC(C)(C)NC(C)(C)C1`, 8 min; to `CN(C(=O)CCCN1C(=O)c2ccccc2C1=O)C1CC(C)(C)N(C)C(C)(C)C1`, 9.02 min.
With `CNCCO`, the LC retention time was 2.61 min.
Next, `CNCCCC12CCC(c3ccccc31)c1ccccc12`: 11.7 min; `CN1C(=O)NC(c2ccc(O)cc2)C2=C1CN(Cc1ccccc1)C2=O` (stereo not given): 9.6 min.
Next, `CCc1ccc2c(c1)c(C=O)c(C)n2C`: 12.9 min; `CC(=O)C(C)(C)C(C)=NN=C(N)c1ccc(C)cc1`: 9.26 min.
To `Cn1c(C2CCCCC2)nc2ccccc21` belongs 9.55 min.
As to `Cc1[nH]c2c(C)ccc(C)c2c1CCN`, the LC retention time is 9.21 min.
As for `O=c1[nH]c(-c2ccccc2)nc2ccccc12`, the LC retention time stood at 11 min.
Next, `Cc1ccc2[nH]c3nc4ccccc4nc3c2c1`: 13.2 min.
To `Nc1ccc(C(=O)Nc2cccc3ccccc23)cc1` belongs 11.1 min; to `Cc1ccc(C(=O)Nc2ccc3[nH]c4c(c3c2)CCCC4)cc1`, 15.1 min; to `C=CCOc1ccccc1OCC(O)CNC(C)C` (stereo not given), 9.94 min.
Next, `CC(C)(C)NCCNC(C)(C)C`: 7.46 min; `CCC(=O)Nc1ccc(N2CCN(C(=O)C(C)C)CC2)cc1`: 9.46 min; `NCc1nccc2ccccc12`: 7.87 min.
On to `CC1CCC(c2cn(C)c3ccccc23)C(=O)C1` (stereo not given), for which the LC retention time is 15.7 min.
Next, `CCc1ccc(NCCC(=O)c2ccc3c(c2)Cc2ccccc2-3)cc1`: 16.3 min.
Take `O=C(NCCCCc1ccccc1)c1ccc2ccccc2n1`: the LC retention time worked out at 17.2 min.
Take `CCN(CC)CC(CP(=O)(O)O)P(=O)(O)O` (stereo not given): the LC retention time was 1.13 min.
To `c1ccc(CNCCc2csc3c2CCCC3)cc1` belongs 11.7 min; to `CC(=O)Oc1ccc(-c2cnc3ccccc3n2)cc1`, 13.9 min; to `O=C(Nc1cccnc1)c1cnccn1`, 7.28 min.
To `O=C1CC(N2CCN(C3CC(=O)N(CCc4ccccc4)C3=O)CC2)C(=O)N1CCc1ccccc1` (stereo not given) belongs 12.4 min; to `Cc1cccc(CN2CCN(C(=O)CC(C)C)CC2)c1`, 9.36 min.
Turning to `Nc1cccc(S(=O)(=O)O)c1`, the LC retention time was determined as 1.45 min.
